Results: a melting point compilation (Tetko et al.; mined from patent text by program, amines drawn as free bases though some values may be those of a salt)

Question: With COc1ccc(NS(=O)(=O)c2cc(C)c3cc(C(C)C)ccc(C)c2-3)c(OC)c1 as the compound, how does the melting point read?
Answer: 114 to 116 °C

Question: Which melting point does the source give for COc1cc2c(cc1OC)-c1cc(N(c3c(C)cc(C)cc3C)C(C)C)nc(=O)n1CC2 here?
Answer: 182 to 183 °C

Question: For O=c1c2cccnc2c(-c2cccc(Cl)c2)cn1Cc1ccccc1, which melting point is on record?
Answer: 149 to 150 °C

Question: Which melting point does the source give for CN1CCN(c2ccc(-c3cc(-c4c(-c5ccccn5)nc5ccccn45)ccn3)cc2)CC1 here?
Answer: 150 °C

Question: With CCOC(=O)/C=C/c1cn(Cc2ccccc2)nc1OCc1ccccc1 as the compound, how does the melting point read?
Answer: 88 to 89 °C

Question: For CCCc1nn(C)c2c(=O)[nH]c(Cc3ccc(C(=O)O)cc3)nc12, which melting point is on record?
Answer: 292 to 293 °C

Question: With O=C1CCN(C(=O)OCc2ccc([N+](=O)[O-])cc2)CC1 as the compound, how does the melting point read?
Answer: 123 to 124 °C

Question: Which melting point does the source give for Nc1cc(I)c(I)cc1N here?
Answer: 135 to 136 °C

Question: For O=c1cc(C(F)(F)C(F)(F)F)nc[nH]1, which melting point is on record?
Answer: 122 to 126 °C

Question: Which melting point does the source give for CCn1c(=O)ccc2cnc(Nc3ccc(N(C)C)cc3)nc21 here?
Answer: 189 to 191 °C

Question: For O=S1CCON=C1c1nc2ccccc2s1 (centres undefined), which melting point is on record?
Answer: 192 to 195 °C

Question: Which melting point does the source give for CCC1(CCCCN2CCN(c3ccc(OC)cc3)CC2)C(=O)Nc2ccccc21 (centres undefined) here?
Answer: 109 to 110 °C

Question: For CC(=O)Nc1nc(CN2CCC(c3c[nH]c4ccccc34)CC2)cs1, which melting point is on record?
Answer: 204 to 207 °C

Question: With COc1cc2c(cc1OCc1ccccc1)C(c1ccccc1)=NCC2 as the compound, how does the melting point read?
Answer: 134 to 137 °C

Question: Which melting point does the source give for COC(=O)c1ccc(-c2nnc(-c3cccc(NC(=O)Nc4ccc(C(C)C)cc4)c3)o2)cc1 here?
Answer: > 270 °C

Question: With CC12CC(c3ccc(N)cc3)(C1)C(=O)NC2=O as the compound, how does the melting point read?
Answer: 216 °C

Question: Which melting point does the source give for CC1(C)CC(N=[N+]=[N-])c2cc(C#N)ccc2O1 (centres undefined) here?
Answer: 63 to 64 °C

Question: Which melting point does the source give for CNC(=O)[C@@H]1C[C@@H](OC)CN1C(=O)OCc1ccccc1 here?
Answer: 45 to 47 °C

Question: Which melting point does the source give for O=c1[nH]c2ccccc2c(=O)n1S(=O)(=O)c1ccccc1 here?
Answer: 211 to 213 °C

Question: With Cc1cccc2c1C(=O)N(C)Cc1c(-c3noc(C4CC4)n3)ncn1-2 as the compound, how does the melting point read?
Answer: 200 °C

Question: With CCOC(=NC(=O)c1ccccc1)N1Cc2ccccc2-c2ccccc2C1 as the compound, how does the melting point read?
Answer: 116 to 117 °C

Question: For O=C(c1cc2ccc3[nH]ccc3c2[nH]1)N1CCC(Cc2ccccc2)CC1, which melting point is on record?
Answer: 186 to 188 °C

Question: For O=C(O)c1ccc(OCc2ccccc2)cc1OCc1ccccc1, which melting point is on record?
Answer: 123 to 124 °C

Question: Which melting point does the source give for CCCCCCCCNC(=O)CC(=O)c1c2ccccc2cc2ccccc12 here?
Answer: 70 to 72 °C

Question: With COc1ccc(CCc2oc3ccc(C#N)cc3c2C(C)=O)cc1 as the compound, how does the melting point read?
Answer: 130 to 131 °C

Question: Which melting point does the source give for CC[N+](CC)(CC)C1CC(=O)N1C(C(=O)OCc1ccc([N+](=O)[O-])cc1)=C([O-])CCOC(=O)c1ccccc1 (centres undefined) here?
Answer: 133 to 134 °C

Question: With O=C(O)c1cc(C(=O)C(F)(F)F)cc2c1OC(c1ccccc1)(c1ccccc1)O2 as the compound, how does the melting point read?
Answer: 187 °C

Question: For Cc1nc(OCC(F)(F)F)c([N+](=O)[O-])c(N2CCN(c3ccc(F)cc3)CC2)n1, which melting point is on record?
Answer: 92 to 95 °C

Question: With Cc1cccc(-c2n[nH]cc2-c2ccnc(-c3ccc(S(C)(=O)=O)cc3)c2)n1 as the compound, how does the melting point read?
Answer: 232 to 234 °C

Question: For S=c1ncn(-c2ccc(Cl)cc2)[nH]1, which melting point is on record?
Answer: 222 to 224 °C

Question: With Cc1nccc(N2CCC(O)(CN3CCN(C(=O)c4ccc(F)cc4)CC3)CC2)n1 as the compound, how does the melting point read?
Answer: 114 to 117 °C

Question: For CCCCCCCCNC(=O)C1CC1c1ccc(N2CC(C(=O)O)CC2=O)cc1 (centres undefined), which melting point is on record?
Answer: 214 °C

Question: Which melting point does the source give for CS(=O)(=O)c1cc(CCC(=O)O)cc(-c2nc(=O)c3ccccc3s2)n1 here?
Answer: 306 °C

Question: Which melting point does the source give for COc1ccc2c(O)c(C(C)C)cc(Br)c2c1 here?
Answer: 81.5 to 83.5 °C

Question: For Cc1cnc(N)c(S(N)(=O)=O)c1, which melting point is on record?
Answer: 187 to 189 °C

Question: With CC(C)(C)OC(=O)NCCCn1c2c(c3ccc(NC(=O)CC(=O)O)cc3c1=O)C(=O)c1ccccc1-2 as the compound, how does the melting point read?
Answer: 211 to 212 °C

Question: Which melting point does the source give for CN(CCOc1ccc(CCOCCc2ncn[nH]2)cc1)c1nc2ccccc2o1 here?
Answer: 127 to 129 °C

Question: Which melting point does the source give for O=C(Nc1ccc(S(=O)(=O)F)cc1)c1cc(Cl)ccc1[N+](=O)[O-] here?
Answer: 182 to 184 °C

Question: Which melting point does the source give for Cc1cnc(-c2ssc(=S)c2C)cn1 here?
Answer: 162 to 163 °C

Question: With Cc1ccc(N2C(=O)C(O)=C(C(=O)c3ccc(OC(F)(F)F)cc3)C2c2ccc(Cn3ncnn3)cc2)nn1 (centres undefined) as the compound, how does the melting point read?
Answer: 258 °C

Question: For COc1c(C)cc(C)c(C2CC(=O)C=C(O)C2)c1C (centres undefined), which melting point is on record?
Answer: 165 to 166 °C

Question: Which melting point does the source give for O=c1c2cnc(-c3ccccc3)nc2sn1CCc1ccccn1 here?
Answer: 132 to 133 °C

Question: With O=C(O)c1ccc(OC(F)F)c2oc3ccc(C(F)(F)F)cc3c12 as the compound, how does the melting point read?
Answer: 280 °C

Question: With CC1(C)OCCC2CC(=O)N21 (centres undefined) as the compound, how does the melting point read?
Answer: 60 to 61 °C

Question: For O=C1C(C2=NCCS2)c2ccccc2N1C1=NCCS1 (centres undefined), which melting point is on record?
Answer: 204 to 205 °C

Question: With OC(c1cccs1)C1CCN(CCc2ccccc2)CC1 (centres undefined) as the compound, how does the melting point read?
Answer: 123 to 125 °C

Question: Which melting point does the source give for O=C(Nc1ccc(Oc2ccnc(N3CCCC(O)C3)n2)c2ccccc12)c1cc(F)cc(N2CCCCC2)c1 (centres undefined) here?
Answer: 93 to 95 °C

Question: Which melting point does the source give for N#C/C=C/c1ccc(Cl)cc1Cl here?
Answer: 156 °C

Question: For CC(C)C[C@H](NC(=O)CCS(=O)(=O)c1ccccc1)C(=O)N[C@@H](C(C)C)[C@@H](O)c1c(-c2ccccc2)c1=O, which melting point is on record?
Answer: 100 to 106 °C

Question: With Nc1ccc2c3c(cccc13)C(=O)N2 as the compound, how does the melting point read?
Answer: 240 to 242 °C

Question: With COc1ccc2ncccc2c1C1OC(=O)NC1=O (centres undefined) as the compound, how does the melting point read?
Answer: 144 to 146 °C

Question: For CC1(COc2ccc(OCCN3CC(COc4ccccc4)OC3=O)cc2)OCCO1 (centres undefined), which melting point is on record?
Answer: 75 to 77 °C

Question: With COc1ccc(/C=C/C(=O)/C=C/C(=O)O)c(OC)c1OC as the compound, how does the melting point read?
Answer: 125 to 127 °C

Question: Which melting point does the source give for CCCCCC(Br)C(Br)CC(Br)C(Br)CCCCCCCBr (centres undefined) here?
Answer: 62 to 64 °C

Question: For COc1ccc(NC(=O)N(O)C2CCCCCCC2)cc1, which melting point is on record?
Answer: 166 to 167 °C

Question: Which melting point does the source give for CS(=O)(=O)c1ccnc(-c2nc(=O)c3ccccc3s2)c1 here?
Answer: 300 to 301 °C

Question: With COC(=O)C(Oc1ccc(C(=O)CN2CCN(c3ccncc3)CC2)cc1)C(=O)OC as the compound, how does the melting point read?
Answer: 115 to 116 °C

Question: Which melting point does the source give for CC(C)(C)OC1OC(=O)C2C1C2(C)C (centres undefined) here?
Answer: 115 °C

Question: With COc1cc([N+](=O)[O-])ccc1-c1cnn(C)c1 as the compound, how does the melting point read?
Answer: 132 to 134 °C

Question: For N#Cc1cc(C(F)(F)F)cc(Cl)c1N1CN(Br)C(C(F)(F)F)=CC1=O, which melting point is on record?
Answer: 166 to 167 °C

Question: Which melting point does the source give for COc1ccc2cc([C@H](C)C(=O)OCCS(=O)CCO)ccc2c1 (some centres undefined) here?
Answer: 74 to 86 °C

Question: Which melting point does the source give for CCN1c2cscc2CN(C)c2ccccc21 here?
Answer: 135 to 137 °C

Question: For Clc1cccc(CN(c2ncnc3[nH]ncc23)C2CCCC2)c1, which melting point is on record?
Answer: 186 to 187 °C

Question: With CC1(C)CC(=O)c2cc(C#N)c(N3CCCCC3)nc2C1 as the compound, how does the melting point read?
Answer: 99 to 100 °C

Question: With O=C(O)C(O)N1C(=O)CCN1c1ccccc1 (centres undefined) as the compound, how does the melting point read?
Answer: 127 to 129 °C

Question: With N#Cc1ccc(C2(n3ccnc3)Cc3ccccc3C2)cc1 as the compound, how does the melting point read?
Answer: 150 to 152 °C

Question: With Clc1ccc(N=c2ccn3ccccc3c2)cc1 as the compound, how does the melting point read?
Answer: 183 to 184 °C

Question: Which melting point does the source give for COC(OC)C1CCC2C3CCC4CC(O)CCC4(C)C3C(=O)CC12C (centres undefined) here?
Answer: 136 to 142 °C

Question: Which melting point does the source give for CNC1C(O)CC2C3CCC4CC(=O)CCC4(C)C3CCC21C (centres undefined) here?
Answer: 167 to 174 °C

Question: With COc1ccc(F)c2c1CCC(C=O)C2=O (centres undefined) as the compound, how does the melting point read?
Answer: 66 to 68 °C

Question: With CC(=O)Nc1ccc(C=CC2=NNC(=O)C(C)(C)C2)cc1 as the compound, how does the melting point read?
Answer: 255 to 257 °C

Question: Which melting point does the source give for O=C(C1CCCCC1)N1c2ccc(F)cc2CCC1CN1CCN(c2ccccc2OCC(F)(F)F)CC1 (centres undefined) here?
Answer: 51 °C

Question: For CC(C)Oc1ccc(/C=C(\NC(=O)c2ccc(OCCCC3CC3)cc2)C(=O)NCCO)cc1, which melting point is on record?
Answer: 64 to 66 °C

Question: With CN(C)C1CCN(c2ccc(-c3[nH]nc4c3C(=O)c3c(NC(=O)NN5CCOCC5)cccc3-4)cc2)CC1 as the compound, how does the melting point read?
Answer: 258 °C
